Patent publication US11051516B2, “Antimicrobial sanitizer compositions and their use” (GFS CORPORATION AUS PTY LTD, priority 2014, dated 2021)

Test system: Escherichia coli K12 NCTC 10538
Test: Hygienic Handrub test BS EN 1500:2013 on human volunteers' hands
Type: in vivo
Experimental: The composition of Example 2 was tested for compliance with requirements for chemical disinfectants and antiseptics in accordance with European Standard BS EN 1500:2013 Chemical Disinfectants and Antiseptics—Hygienic Handrub—Test Method and Requirements. The test organism was Escherichia coli K12 NCTC 10538 which was obtained as a freeze dried ampoule and was reconstituted using Tryptone Soy Broth and incubated to achieve a concentration of 2×10^9 Cfu/mL. The reference standard was propan-2-ol 60% v/v solution in sterile water. There were no deviations from the standard test method.
Human volunteer's hands were washed for 1 minute with diluted soft soap (5 mL), rinsed in running water and dried with a paper towel for at least 30 seconds. The hands were immersed up to the mid-metacarpals for five seconds and the liquid was allowed to drain back into the container for a maximum of 30 seconds before allowing to air dry for three minutes.
The reference standard (3.0 mL) was applied and rubbed for 30 seconds. This was repeated with a second portion of reference standard (3.0 mL) and rubbing for a further 30 seconds. This procedure was repeated for 20 volunteers.
This protocol was repeated on 20 volunteers using the composition of Example 2.
The protocol of Example 16 was repeated for the composition of Example 4.

CC(C)O [reference standard, propan-2-ol]
Mean Log Reduction Factor (Example 16, 20 volunteers, 2 x 3.0 mL, rubbed 30 seconds each): 3.89 | Mean Log Reduction Factor (Example 17, protocol of Example 16 repeated): 3.90
